Assay results taken from US20020055130A1, “Method and product for regulating apoptosis” (National Jewish Center for Immunology and Respiratory …, priority 1997, published 2002).

Tests used:
L929 cells = assay: TNFα-mediated apoptosis of L929 cells (neutral red assay, propidium iodide staining); type: cell-based, murine; conditions: for effect on TNFα-mediated cell death / apoptosis / effect on the protective action of bFGF against TNFα-mediated cell death: L929 cells
Experimental: Cell lines and culture. L929 cells (ATCC CCL1 were maintained in Dulbecco's modified Eagle's medium with 5% newborn claf serum and 5% bovine calf serum (BCS) supplemented with 100 ug/ml streptomycin and 100U/ml penicillin. The cells were grown in 10 cm dishes at 37° C. in 7.5% CO2. Cells were made quiescent where indicated by incubation in Dulbecco's modified Eagle's medium and 0.1% bovine serum albumin for 24 h. Recombinant murine TNFα and recombinant humanbFGF (147aa) were from R&D Systems, Minneapolis, Minn. Cells were pretreated where indicated with the MEK-1 inhibitor PD#098059 (Parke-Davis Pharmaceutical Corp. Ann Arbor, Mich.) for 1 h at 37° C. Cells were stimulated by incubation with the indicated cytokine or growth factor for various times at 37° C. […] Stimulation was stopped by rinsing the plates twice with ice cold phosphate buffered saline (PBS) and lysing the cells in the appropriate lysis buffer. Cells were scraped from the plates and nuclei were pelleted for 10 min at 14,000 RPM in a microcentrifuge.
Neutral Red Assay Uptake of the dye neutral red was used as one measure of cell viability following cytokine or growth factor treatment (Finter, N. B. (1969) J. Gen Virol. 5:419-427). 1.5×10^4-2.5×10^5 L929 cells/well were plated in 12 well tissue culture dishes in 1.25 ml of media. Cells were treated for 15-20 hr with various concentrations of TNFα and/or bFGF. 2.5 μl of 1% neutral red was added to the wells and incubated for 2 hr at 37° C. PBS. The neutral red was extracted with 1.0 ml of 50% ethanol, 50 mM Na-citrate pH 4.2 and absorbency was measured at […].
Propidium iodide staining Cells were plated on glass chamber slides (Nunc, Naperville, Ill.) at a concentration of 0.2-0.6×10^5 cells/ml. Ras expression was induced with 5 mM IPTG in Dulbecco's modified Eagle's medium with 0.1% BCS for 8-12 hr. Cells were exposed to TNFα (5 ng/ml) and/or bFGF (500 pg/ml) in Dulbecco's modified Eagle's medium with 0.1% BCS for 16 hr. The parental LACI expressing cell line (see below) was used as a control. Cells were washed twice in PBS, fixed in acetone:methanol (1:1) −20° C. for 5 min, air dried, washed twice in PBS, stained with 1 μg/ml propidium iodide (PI) in PBS for 20 min, washed in PBS, washed in H2O and mounted in 25% glycerol/PBS. PI fluorescence was observed using a Nikon inverted microscope equipped with epifluorescence and a […] filter. Images were analyzed using IP lab.

JNK = JNK assay (solid state kinase assay with GST-Jun), L929 cells; type: cell-based, murine; conditions: for effect on JNK activity: bFGF 2.5 ng/ml, PD #098059 pretreatment; for effect on TNFα stimulation of JNK: co-stimulation or IPTG-induced Ras expression
Experimental: JNK assay. JNK activity was measured using a solid state kinase assay in which glutathione S-transferase-c-Jun(1-79) (GST-JUN) cound to glutathione-Sepharose 4B beads was used to affinity pruify JNK and then JNK activity was measured in an in vitro kinase assay using the sepharose bound GST-Jun as a substrate (Hibi, M., et al. (1993) Genes & Development 7:2135-2148). Stimulated or unstimulated cells were lysed in 0.5% Nonidet P-40, 20 mM HEPES pH 7.2, 100 mM NaCl, 2 mM dithiothreitol, lmM EDTA, 1.0 mM phenylmethylsulfonylfluoride, 1 μg/ml aprotinin and the nuclei pelleted. Lysates were normalized for protein content. […] Binding to GST-Jun efficiently isolates the two major forms of JNK (p45and p55) and under the conditions used JNK isolation was linear for 10-250 μg of cell lysate. The lysates were rotated at 4° C. for 1-3 h. Beads were washed twice in lysis buffer and then twice in PAN (10 mM PIPES, pH 7.0, 100 mM NaCl, 21 μg/ml aprotinin). Kinase reactions were carried out at 30° C. for 15 min in 20 mM Hepes pH 7.2, 20 mM β-glycerophosphate, 10 mMp-nitrophenyl phosphate, 10 mM MgCl2, 1 mM dithiothreitol, 50 μm sodium vanadate, 10 μCi γ^32P-ATP 4300 Ci/mmole. The kinase reaction was linear from 0-30 min.

p42/p44 MAPK = assay: MAPK assay (EGFR662-681 peptide), L929 cells; type: cell-based, murine
Experimental: MAPK Assay MAPK activity was measured exactly as described previously (Gardner, A. M., et al. (1994) Meth. Enzymol. 238:258-270) with the exception that MonoQ FPLC fractionation was replaced by step elution from a DEAE-Sephacel column using 0.5 M NaCl in loading buffer. The eluate was assayed in triplicate using the epidermal growth factor receptor 662-681 peptide (EGFR662-681) as a selective substrate for MAPK activity (Heasley, L. E., et al. (1994) American Journal of Physiology (Renal Fluid Electrolyte Physiol. 36) 267:F366-F373).

endogenous MEKK1 protein = assay: Cleavage of endogenous MEKK1 after genotoxic stress stimuli (immunoblot); type: cell-based, Human; conditions: HEK293 cells
Experimental: 200-400 μg cell lysate protein was subjected to SDS-9% PAGE and transferred to nitrocellulose membranes. Blots were performed exactly as described (Widmann et al., 1995). To detect HA-tagged proteins, the mouse monoclonal antibody 12CA5 (Babco) was used as the primary antibody, followed by a rabbit anti-mouse antibody (Cappel). HRP-conjugated protein A at a 1/5000 dilution (Zymed) and ^125I-protein A at a 1/500 dilution (Dupont NEN) were then used for enhanced chemiluminescence (ECL) detection and for quantification using the phosphorimager. To detect MEKK1, 3 different ploclonal antisera were used as primary antibodies, followed by ECL detection using HRP-protein A (see above). These sera were generated by injecting rabbits with GST proteins fused with different portions of the MEKK1 protein.
Several genotoxic stress stimuli were applied to HEK293 cells and their effect on the MEKK1 protein was assessed.

MEKK1 = MEKK1 immunoprecipitate in vitro kinase assay (MEK-1 phosphorylation), growth factor treated PC12 cells; type: cell-based; conditions: for MEKK1 activity: serum starved PC12 cells, EGF 30 ng/ml or NGF 100 ng/ml, 5 minutes
Raf-B = Raf-B immunoprecipitate in vitro kinase assay, EGF treated PC12 cells; type: cell-based; conditions: EGF 30 ng/ml timecourse
Experimental: (§1) Reactions were stopped by the addition of 2× SDS sample buffer (20 μl). The samples were boiled for 3 minutes and subjected to SDS-PAGE and autoradiography. Raf-B was immunoprecipitated from the same untreated and treated PC 12 cell lysates as above with an antiserum to a COOH-terminal peptide of Raf-B (Santa Cruz Biotechnology, Inc.) and assayed similarly. Raf-1 was immunoprecipitated with an antiserum to the 12 COOH-terminal amino acids of Raf-1 (Santa Cruz Biotechnology, Inc.).

c-Raf-1 = assay: Raf-1 immunoprecipitate in vitro kinase assay, growth factor treated PC12 cells; type: cell-based; conditions: in comparison to MEKK1 or Raf-B
Experimental: as §1

B-Raf = assay: Raf activation assay (kinase-inactive MEK-1 phosphorylation), L929 cells; type: cell-based, murine
Experimental: (§2) RafActivation Assay Cells were serum starved and challenged in the presence or absence of the appropriate cytokine or growth factors, as described above. Cells were lysed by scraping in ice cold RIPA buffer (50 mM Tris-HCl, pH 7.2, 150 mM NaCl, 0.1% SDS, 0.5% sodium deoxycholate, 1.0% Triton X-100, 10 mM sodium pyrophosphate, 25 mM β-glycerophosphate, 2 mM sodium vanadate, 2.1 µg/ml aprotinin) and the nuclei were pelletted. The supernatants were normalized for protein content and precleared with protein A Sepharose prior to immunoprecipitation with rabbit antiserum to the C terminus of C-Raf, rabbit anti-serum to A-Raf or rabbit antiserum to B-Raf (Santa Cruz Biotech., Santa Cruz, Calif.) and protein A Sepharose for 2-3 hr at 4° C. The beads were washed twice with ice cold RIPA and twice with PAN. A third of the immunoprecipitate was diluted with SDS sample buffer and used for immunoblot analysis. […] Wild-type recombinant MEK-1 was autophosphorylated in parallel as a marker. Reactions were terminated by the addition of 12.5 μl 5× SDS sample buffer, boiled, and subjected to SDS-PAGE and autoradiography.

C-Raf = assay: as above; type: cell-based, murine
Experimental: as §2

[1] = tested on: Swiss 3T3 cells and REF52 cells; assay: Beauvericin-induced apoptosis (anti-tubulin and propidium iodide staining); type: cell-based; conditions: 50 μM, 6 hours, 37° C.
Experimental: A first group of transfected Swiss 3T3 cells and REF52 cells were treated with 50 μM beauvericin for 6 hours at 37° C. Beauvericin is a compound known to induce apoptosis in mammalian cells. A second group of cells were treated with a control buffer lacking beauvericin. The treated cells were then fixed in parafornaldehyde and permeabilized with saponin using protocols standard in the art. The permeabilized cells were then labelled by incubating the cells with a fluorescein-labelled anti-tubulin antibody (1:500; obtained from GIBCO, Gaithersburg, Md.) to detect cytoplasmic shrinkage or 10 μM propidium iodide (obtained from Sigma, St. Louis, Mo.) to stain DNA to detect nuclear condensation. The labelled cells were then viewed by differential fluorescent imaging using a Nikon Diaphot fluorescent microscope.

Swiss 3T3 cells = assay: Quantitation of MEKKCOOH-induced cell death after nuclear microinjection; type: cell-based
Experimental: Swiss 3T3 and REF52 cells were plated on acid-washed glass cover slips in Dulbecco's Modified Eagle's Medium (DMEM) and 10% bovine calf serum (BCS) or newborn calf serum (NCS). Cells were placed in DMEM/0.1% calf serum for overnight incubation prior to microinjection and used for injection at 50-70% confluence. Injections were performed with an Eppendorf automated microinjection system with needles pulled from glass capillaries on a vertical pipette puller (Kopf, Tujunga, Calif.). Cells were injected with pCMVβ-gal in the presence or absence of pCMV5MEKKCOOH or pCMV5BxBRaf at 20-100 ng/μl for each expression plasmid in 100 mM KC1, 5 mM NaPO4, pH 7.3. […] Similar results were obtained when cells were placed in 10% NCS after microinjection. Propidium iodide (5 pg/ml) was used to stain DNA. X-Gal reactions were performed for six hr.
Seventeen hours after injection cells were fixed and stained for β-galactosidase activity with X-Gal. Injected cells attached to the coverslip were scored as positive for cell death when they were highly condensed, small round cells.

## COc1cccc(-c2cc(=O)c3ccccc3o2)c1N [PD #098059, reference compound]
L929 cells
  effect on TNFα-mediated cell death / apoptosis: no effect on TNFα-mediated apoptosis
  effect on the protective action of bFGF against TNFα-mediated cell death: inhibited the protective action of bFGF
JNK
  effect on JNK activity: did not inhibit JNK kinase or the activation of JNK
p42/p44 MAPK; L929 cells
  effect on bFGF stimulation of MAPK activity: inhibited bFGF stimulation of MAPK activity

## N.N.[Cl][Pt][Cl] [cisplatin]
Endogenous MEKK1 protein
  effect on full length MEKK1 protein: induced the loss of full length MEKK1
  full length MEKK1 remaining after treatment: no full length MEKK1 protein remaining

## EGF: epidermal growth factor
MEKK1; EGF 30 ng/ml timecourse
  persistence of MEKK1 activation: at least 30 minutes
MEKK1
  MEKK1 activity: increased MEKK1 activity
Raf-B
  time to peak Raf-B activity: 3 to 5 min
c-Raf-1
  activation of c-Raf-1: almost negligible

## N17 Ras: HA-tagged inhibitory N17 Ras, IPTG-inducible in L929 cells [reference compound]
L929 cells
  effect on TNFα-mediated cell death / apoptosis: did not affect TNFα induced apoptosis
  effect on the protective action of bFGF against TNFα-mediated cell death: markedly inhibit the ability of bFGF to protect cells
JNK
  effect on TNFα stimulation of JNK: no effect on TNF stimulation of JNK
p42/p44 MAPK; L929 cells
  effect on bFGF stimulation of MAPK activity: significantly blunted bFGF stimulation of MAPK

## NGF: growth factor used at 100 ng/ml on PC12 cells
MEKK1
  MEKK1 activity: slight increase in MEKK1 activity
c-Raf-1
  activation of c-Raf-1: almost negligible

## bFGF: recombinant human basic fibroblast growth factor (147aa)
L929 cells
  effect on TNFα-mediated cell death / apoptosis: effective at blocking TNFα-mediated cell death
L929 cells; in the absence of TNFα
  cell number: did not measurably increase cell number
JNK
  effect on JNK activity: little or no effect on JNK activity
  effect on TNFα stimulation of JNK: did not alter the magnitude of JNK activation
p42/p44 MAPK
  concentrations giving maximal stimulation of MAPK activity: 0.25 to 0.5 ng/mL
p42/p44 MAPK; L929 cells, TNFα 1 ng/ml where stated
  MAPK activity: robust activation of MAPK
B-Raf
  B-Raf activation: activation of both B-Raf and C-Raf
C-Raf
  C-Raf activation: activation of both B-Raf and C-Raf

## beauvericin
[1]
  apoptotic morphology: cytoplasmic shrinkage (monitored by the anti-tubulin antibodies) and nuclear condensation

## β-gal: expression plasmid encoding β-galactosidase, injected alone as control
Swiss 3T3 cells; 48-72 hours post-injection
  injected cells with an altered morphology: < 1%
Swiss 3T3 cells; Swiss 3T3 cells, 100 ng/μl plasmids, seventeen hours after injection, highly condensed, small round cells
  Condensed Cells (number): 4
Swiss 3T3 cells; Swiss 3T3 cells, 100 ng/μl plasmids, seventeen hours after injection, percent of cells injected
  Condensed Cells (%): 1%
